Measured values as given in US8183262B2, “Pyridine derivatives as mGluR2 antagonists” (Hoffmann-La Roche Inc., priority 2007, dated 2012).

Row | SMILES | melting point
1 | Nc1ncc(-c2cn(-c3cc(C(F)(F)F)cc(-c4ccc(C(F)(F)F)cc4)n3)cn2)cn1 [Example 66, 5-{1-[4-Trifluoromethyl-6-(4-trifluoromethyl-phenyl)-pyridin-2-yl]-1H-imidazol-4-yl}-pyrimidin-2-ylamine] | > 250 °C
2 | Cc1cc(-c2cc(C(F)(F)F)nc(-c3nc(-c4ccc(N)nc4)no3)n2)ccc1C(F)(F)F [Example 130, 5-{5-[4-(3-Methyl-4-trifluoromethyl-phenyl)-6-trifluoromethyl-pyrimidin-2-yl]-[1,2,4]oxadiazol-3-yl}-pyridin-2-ylamine] | 223 °C
3 | Cc1cc(-c2ccc(C(F)(F)F)cc2)nc(-c2cccc(-c3cnc(N)nc3)c2)n1 [Example 115, 5-{3-[4-Methyl-6-(4-trifluoromethyl-phenyl)-pyrimidin-2-yl]-phenyl}-pyrimidin-2-ylamine] | 290 °C
4 | FC(F)(F)c1ccc(-c2cc(C(F)(F)F)nc(-c3ccnc(-c4cccnc4)c3)n2)cc1 [Example 85, 4-[4-Trifluoromethyl-6-(4-trifluoromethyl-phenyl)-pyrimidin-2-yl]-[2,3′]bipyridinyl] | 247 °C
5 | FC(F)(F)c1cc(-c2ccc(Cl)cc2)nc(-c2ccnc(-c3cccnc3)c2)n1 [Example 84, 4-[4-(4-Chloro-phenyl)-6-trifluoromethyl-pyrimidin-2-yl]-[2,3]bipyridinyl] | 226 °C
6 | CC(=O)Nc1ccc(-c2cn(-c3nc(-c4ccc(C(F)(F)F)cc4)cc(C(F)(F)F)n3)cn2)cn1 [Example 95, N-(5-{1-[4-Trifluoromethyl-6-(4-trifluoromethyl-phenyl)-pyrimidin-2-yl]-1H-imidazol-4-yl}-pyridin-2-yl)-acetamide] | 314 °C
7 | Cc1cc(-c2ccc(C(F)(F)F)cc2)cc(-n2cnc(-c3ccc(N)nc3)c2)n1 [Example 58, 5-{1-[6-Methyl-4-(4-trifluoromethyl-phenyl)-pyridin-2-yl]-1H-imidazol-4-yl}-pyridin-2-ylamine] | 224 to 226 °C
8 | Cc1cc(-c2ccc(Cl)cc2)cc(-c2cccc(-c3cnc(N)nc3)c2)n1 [Example 82, 5-{3-[4-(4-Chloro-phenyl)-6-methyl-pyridin-2-yl]-phenyl}-pyrimidin-2-ylamine] | 197 to 199 °C
9 | Cc1cc(-c2cc(C(F)(F)F)nc(-c3nc(-c4ccc(N)nc4)no3)n2)ccc1Cl [Example 107, 5-{5-[4-(4-Chloro-3-methyl-phenyl)-6-trifluoromethyl-pyrimidin-2-yl]-[1,2,4]oxadiazol-3-yl}-pyridin-2-ylamine] | 199.5 °C
10 | Cc1cc(-c2ccc(Cl)cc2)nc(-n2cnc(-c3cnc(N)nc3)c2)n1 [Example 45, 5-{1-[4-(4-Chloro-phenyl)-6-methyl-pyrimidin-2-yl]-1H-imidazol-4-yl}-pyrimidin-2-ylamine] | 264 to 266 °C
11 | Cc1cc(-c2cc(C(F)(F)F)nc(-c3nc(-c4cccc(S(N)(=O)=O)c4)no3)n2)ccc1C(F)(F)F [Example 129, 3-{5-[4-(3-Methyl-4-trifluoromethyl-phenyl)-6-trifluoromethyl-pyrimidin-2-yl]-[1,2,4}oxadiazol-3-yl]-benzenesulfonamide] | 223.5 °C
12 | Cc1cc(-c2ccc(Cl)c(Cl)c2)nc(-n2cnc(-c3ccc(N)nc3)c2)n1 [Example 145, 5-{1-[4-(3,4-Dichloro-phenyl)-6-methyl-pyrimidin-2-yl]-1H-imidazol-4-yl}-pyridin-2-ylamine] | 213 °C
13 | Nc1ccc(-c2cn(-c3nc(-c4ccc(Cl)cc4)cc(C4CC4)n3)cn2)cn1 [Example 49, 5-{1-[4-(4-Chloro-phenyl)-6-cyclopropyl-pyrimidin-2-yl]-1H-imidazol-4-yl}-pyridin-2-ylamine] | 220 to 222 °C
14 | Cc1cc(-c2ccc(C(F)(F)F)cc2)cc(-c2ccnc(-c3cnc(N)nc3)c2)n1 [Example 76, 5-[6-Methyl-4-(4-trifluoromethyl-phenyl)-[2,4′]bipyridinyl-2′-yl]-pyrimidin-2-ylamine] | > 245 °C
15 | Nc1ccc(-c2cn(-c3nccc(-c4ccc(Cl)cc4)n3)cn2)cn1 [Example 52, 5-{1-[4-(4-Chloro-phenyl)-pyrimidin-2-yl]-1H-imidazol-4-yl}-pyridin-2-ylamine] | 188 to 190 °C

Now from value to compound:

Row | melting point | SMILES
16 | 167 °C (dec.) | Cc1cc(-c2ccc(C(F)(F)F)cc2)cc(-c2cccc(-c3cccc(S(=O)(=O)N4CCN(C)CC4)c3)n2)n1 [Example 370, 6-Methyl-6′-[3-(4-methyl-piperazine-1-sulfonyl)-phenyl]-4-(4-trifluoromethyl-phenyl)-[2,2′]bipyridinyl]
17 | 287 °C | Cc1cc(-c2cc(C(F)(F)F)nc(-n3cnc(-c4ccc(S(N)(=O)=O)cc4)c3)n2)ccc1C(F)(F)F [Example 212, 4-{1-[4-(3-Methyl-4-trifluoromethyl-phenyl)-6-trifluoromethyl-pyrimidin-2-yl]-1H-imidazol-4-yl}-benzenesulfonamide]
18 | 244.5 °C | NS(=O)(=O)c1ccc(-c2cn(-c3nc(-c4ccc(F)cc4)cc(C(F)(F)F)n3)cn2)s1 [Example 386, 5-{1-[4-(4-Fluoro-phenyl)-6-trifluoromethyl-pyrimidin-2-yl]-1H-imidazol-4-yl}-thiophene-2-sulfonic acid amide]
19 | 236 °C | CC(C)(C)NS(=O)(=O)c1cnc(-c2cn(-c3cc(C(F)(F)F)cc(-c4ccc(C(F)(F)F)cc4)n3)cn2)s1 [Example 281, 2-{1-[4-Trifluoromethyl-6-(4-trifluoromethyl-phenyl)-pyridin-2-yl]-1H-imidazol-4-yl}-thiazole-5-sulfonic acid tert-butylamide]
20 | 157 °C | Cc1cc(-c2ccc(C(F)(F)F)cc2)cc(-c2cccc(-c3cccc(S(=O)(=O)N(C)C4CC4)c3)n2)n1 [Example 425, N-Cyclopropyl-N-methyl-3-[6′-methyl-4′-(4-trifluoromethyl-phenyl)-[2,2′]bipyridinyl-6-yl]-benzenesulfonamide]
21 | 275 °C | Cc1cc(-c2ccc(Cl)cc2)nc(-n2cnc(-c3cccc(S(N)(=O)=O)c3)c2)n1 [Example 176, 3-{1-[4-(4-Chloro-phenyl)-6-methyl-pyrimidin-2-yl]-1H-imidazol-4-yl}-benzenesulfonamide]
22 | 190 °C | FC(F)(F)c1ccc(-c2cc(C(F)(F)F)nc(-n3cnc(-c4cccnc4)n3)n2)cc1 [Example 149, 2-(3-Pyridin-3-yl-[1,2,4]triazol-1-yl)-4-trifluoromethyl-6-(4-trifluoromethyl-phenyl)-pyrimidine]
23 | 237.5 °C | NS(=O)(=O)c1ccc(-c2cccc(-c3nc(-c4ccc(Cl)cc4Cl)cc(C(F)(F)F)n3)c2)s1 [Example 411, 5-{3-[4-(2,4-Dichloro-phenyl)-6-trifluoromethyl-pyrimidin-2-yl]-phenyl}-thiophene-2-sulfonic acid amide]
24 | 260 °C | Cc1cc(-c2cc(C(F)(F)F)nc(-n3cnc(-c4ccc(S(N)(=O)=O)s4)c3)n2)ccc1C(F)(F)F [Example 209, 5-{1-[4-(3-Methyl-4-trifluoromethyl-phenyl)-6-trifluoromethyl-pyrimidin-2-yl]-1H-imidazol-4-yl}-thiophene-2-sulfonic acid amide]
25 | 242 °C | NS(=O)(=O)c1ccc(-c2cc(-c3nc(-c4ccc(C(F)(F)F)cc4)cc(C(F)F)n3)ccn2)s1 [Example 458, 5-{4-[4-Difluoromethyl-6-(4-trifluoromethyl-phenyl)-pyrimidin-2-yl]-pyridin-2-yl}-thiophene-2-sulfonic acid amide]
26 | > 250 °C | Cc1cc(-c2ccc(C(F)(F)F)cc2)cc(-c2ccc(-c3cnc(N)nc3)s2)n1 [Example 253, 5-{5-[6-Methyl-4-(4-trifluoromethyl-phenyl)-pyridin-2-yl]-thiophen-2-yl}-pyrimidin-2-ylamine]
27 | 233 °C (dec.) | COc1cc(-c2cc(C)nc(-c3ccnc(-c4cccc(S(N)(=O)=O)c4)c3)c2)ccc1C(F)(F)F [Example 340, 3-[4-(3-Methoxy-4-trifluoromethyl-phenyl)-6-methyl-[2,4′]bipyridinyl-2′-yl]-benzenesulfonamide]
28 | 150 °C | Cc1cc(-c2ccc(C(F)(F)F)cc2)cc(-c2cccc(-c3cccc(S(=O)(=O)NC4CC4)c3)n2)n1 [Example 424, N-Cyclopropyl-3-[6′-methyl-4′-(4-trifluoromethyl-phenyl)-[2,2′]bipyridinyl-6-yl]-benzenesulfonamide]
29 | 183.5 °C | CS(=O)(=O)c1cccc(-c2cccc(-c3nc(-c4ccc(C(F)(F)F)cc4)cc(C(F)(F)F)n3)c2)c1 [Example 219, 2-(3′-Methanesulfonyl-biphenyl-3-yl)-4-trifluoromethyl-6-(4-trifluoromethyl-phenyl)-pyrimidine]
30 | 282.5 °C | Cc1cc(-c2ccc(Cl)c(Cl)c2)nc(-n2cnc(-c3ccc(S(N)(=O)=O)cc3)c2)n1 [Example 199, 4-{1-[4-(3,4-Dichloro-phenyl)-6-methyl-pyrimidin-2-yl]-1H-imidazol-4-yl}-benzenesulfonamide]
31 | 264 °C | NS(=O)(=O)c1cnc(-c2cn(-c3nc(-c4ccc(C(F)(F)F)cc4)cc(C(F)(F)F)n3)cn2)s1 [Example 181, 2-{1-[4-Trifluoromethyl-6-(4-trifluoromethyl-phenyl)-pyrimidin-2-yl]-1H-imidazol-4-yl}-thiazole-5-sulfonic acid amide]
32 | 188 °C | Cc1cc(-c2ccc(Cl)c(Cl)c2)cc(-c2cccc(-c3cnc(N)nc3)c2)n1 [Example 250, 5-{3-[4-(3,4-Dichloro-phenyl)-6-methyl-pyridin-2-yl]-phenyl}-pyrimidin-2-ylamine]
33 | 144 °C | CCC(=O)NS(=O)(=O)c1cccc(-c2cc(-c3nc(-c4ccc(C(F)(F)F)cc4)cc(C(F)(F)F)n3)ccn2)c1 [Example 374, N-Propionyl-3-{4-[4-trifluoromethyl-6-(4-trifluoromethyl-phenyl)-pyrimidin-2-yl]-pyridin-2-yl}-benzenesulfonamide]
34 | 267 °C | Cc1cc(-c2ccc(Cl)c(Cl)c2)nc(-c2ccnc(-c3ccc(S(N)(=O)=O)s3)c2)n1 [Example 196, 5-{4-[4-(3,4-Dichloro-phenyl)-6-methyl-pyrimidin-2-yl]-pyridin-2-yl}-thiophene-2-sulfonic acid amide]
